Test results reported in paper PMC4038554, “Human CD4^+ T Cell Responses to the Dog Major Allergen Can f 1 and Its Human Homologue Tear Lipocalin Resemble Each Other” (PLoS ONE, 2014).

What was measured:
DRB3 = assay: HLA class II peptide-binding assay (competitive ELISA); parameters: species or system human; conditions: DRB3; competitive ELISA, immunopurified HLA; reference peptide IC50 60 nM; ratio ≤20 high affinity, 20–200 moderate affinity
DRB1*1501 = DRB1*1501 (Homo sapiens, UniProt P01903+P01911); assay: as above; conditions: immunopurified HLA, reference peptide IC50 775 nM, ratio ≤20 high affinity, 20–200 moderate affinity
DRB1*1101 = DRB1*1101 (Homo sapiens, UniProt P01903+P01911, A100R/A169T/A87E/I96F/K41T/L162R/M171V/P40S/Q125H/Q178H/Q39Y/Q99D/R42S/S66Y/T262R/V115G/W38E); assay: as above; conditions: immunopurified HLA, reference peptide IC50 50 nM, ratio ≤20 high affinity, 20–200 moderate affinity
DRB1*0701 = DRB1*0701 (Homo sapiens, UniProt P01903+P01911, A100R/A102G/A103Q/D57E/D86V/E43K/F76Y/K127E/L162R/M171V/P40G/Q125H/Q99D/R33Q/R42Y/R54Q/S133A/S66F/T210M/V115G/Y107V/Y59L/Y89S); assay: as above; conditions: immunopurified HLA, reference peptide IC50 5 nM, ratio ≤20 high affinity, 20–200 moderate affinity
DRB1*0401 = DRB1*0401 (Homo sapiens, UniProt P01903+P01911, A100K/A169T/F76Y/I96L/K127E/L162R/M171V/N62H/P40V/Q125Y/R42H/S133A/S149N/S66Y/V115G/V209L/W38E); assay: as above; conditions: immunopurified HLA, reference peptide IC50 8 nM, ratio ≤20 high affinity, 20–200 moderate affinity
DRB1*0101 = DRB1*0101 (Homo sapiens, UniProt P01903+P01911, A100R/D57E/F55L/F60I/F76Y/I96L/L162R/M171V/P40L/Q125E/R42F/V115G/Y59C); assay: as above; conditions: immunopurified HLA, reference peptide IC50 3 nM, ratio ≤20 high affinity, 20–200 moderate affinity
DRB1*0301 = DRB1*0301 (Homo sapiens, UniProt P01903+P01911, A100K/A102G/A103R/A169T/F55Y/I96L/K41T/L162R/M171V/P40S/Q125H/Q178H/Q39Y/R42S/S66N/T106N/T262R/W38E/Y61H); assay: as above; conditions: immunopurified HLA, reference peptide IC50 423 nM, ratio ≤20 high affinity, 20–200 moderate affinity
DRB4 = assay: as above; parameters: species or system human; conditions: DRB4; competitive ELISA, immunopurified HLA; reference peptide IC50 8 nM; ratio ≤20 high affinity, 20–200 moderate affinity
DRB5 = assay: as above; parameters: species or system human; conditions: DRB5; competitive ELISA, immunopurified HLA; reference peptide IC50 7 nM; ratio ≤20 high affinity, 20–200 moderate affinity
DRB1*1301 = DRB1*1301 (Homo sapiens, UniProt P01903+P01911, A100E/A169T/K41T/L162R/M171V/P40S/Q125H/Q178H/Q39Y/Q99D/R42S/S66N/T262R/W38E/Y61H); assay: as above; conditions: immunopurified HLA, reference peptide IC50 208 nM, ratio ≤20 high affinity, 20–200 moderate affinity
[1] = system: CD25-depleted PBMCs (CD4+ T cells); assay: Generation of peptide-specific CD4+ T cell lines with the split-well method (frequency of specific TCLs); assay type: cell-based, human; conditions: peptides at 2 µM, 10^5 PBMCs per well, mean±SEM, SEM
Method: After isolating peripheral-blood mononuclear cells (PBMCs) by Ficoll-Paque Plus density gradient centrifugation (GE Healthcare Biosciences, Uppsala, Sweden), CD4^+CD25high regulatory T cells were depleted with anti-CD25-magnetic beads (Miltenyi Biotec, Bergisch Gladbach, Germany), to enhance the induction of both autoreactive and allergen-reactive CD4^+ T cell responses, as previously described, [34].The CD25-depleted PBMCs were seeded in 96-well U-bottomed plates (Corning Incorporated, Corning, USA; 10^5 PBMCs per well) in the presence of pooled Can f 1 or TL peptides (each peptide at 2 µM, 30 wells per a peptide pool), or the HA peptide (30 wells) in a 150 µl volume of RPMI 1640 culture medium supplemented with 2 mM L-glutamine, 20 µM 2-mercaptoethanol, 1 mM sodium pyruvate, nonessential amino acids, 100 IU/ml penicillin, 100 µg/ml streptomycin, 10 mM HEPES (all from Lonza, Verviers, Belgium) and 5% inactivated human AB serum (Sigma-Aldrich, St. Louis, MO). On day 5, 50 µl of fresh medium supplemented with 10 IU/ml of IL-2 (Strathmann Biotech, Hannover, Germany) was added to the cultures. On day 7, half of the culture medium was replaced without IL-2. On day 10, half of the cells in the cultures were split into daughter plates for testing specificity by stimulating the cells with or without the pooled peptides (each peptide at 2 µM) together with autologous γ-irradiated (3000 rad) PBMCs (5×10^5) as antigen-presenting cells. After an incubation of 72 h, [3H]thymidine was added (1 µCi per well; GE Healthcare, Little Chalfont, UK), and after an additional 16 h, the cells were harvested onto glass fiber filters on day 14 (Wallac, Turku, Finland). Radioactivity was measured by scintillation counting (Wallac Micro Beta 1540) and the results were expressed as counts per minute (CPM). The stimulation indices (SI; CPM in the presence of antigen divided by CPM in the absence of antigen) and CPM differences between stimulated and unstimulated wells (ΔCPM) were determined. On the same day, positive cultures (ΔCPM>2000 and SI>2) were restimulated in 48-well plates with autologous γ-irradiated PBMCs (10^6/well), 2 µM of the peptides and 25 IU/ml of IL-2. On day 28, the established TCLs were propagated once more with peptides, IL-2 and PBMCs. After stimulations, half of the culture medium was replaced with fresh medium supplemented with IL-2 every 2–3 days. The peptide specificity of TCLs was defined as described below.
T cell proliferation assays were set in duplicates in 96-well U-bottomed plates with 2.5×10^4 cultured T cells, 5×10^4 autologous γ-irradiated (3000 rad) PBMCs as APCs, and antigens as indicated. In order to determine the epitope specificity of the established TCLs induced with peptide pools, the T cell lines were tested with each of the three individual peptides in the pool at 10 µM on day 28. Proliferation was measured by radionuclide uptake (see above). […] On day 42, peptide-specific TCLs were tested with individual Can f 1 peptides, as well as their TL homologues, at several concentrations up to 10 µM. The functional T cell receptor (TCR) avidities of the TCLs for a peptide were assessed by determining effective concentration 50 (EC50) values (i.e., the concentration of a peptide needed to induce a half-maximal proliferative response) from the dose-response curves of individual TCLs.

| Sequence | relative binding ratio (IC50 of the test peptide divided by IC50 of the reference peptide) (DRB3) | relative binding ratio (IC50 of the test peptide divided by IC50 of the reference peptide) (DRB1*1501) | relative binding ratio (IC50 of the test peptide divided by IC50 of the reference peptide) (DRB1*1101) | relative binding ratio (IC50 of the test peptide divided by IC50 of the reference peptide) (DRB1*0701) | relative binding ratio (IC50 of the test peptide divided by IC50 of the reference peptide) (DRB1*0401) | relative binding ratio (IC50 of the test peptide divided by IC50 of the reference peptide) (DRB1*0101) | relative binding ratio (IC50 of the test peptide divided by IC50 of the reference peptide) (DRB1*0301) | relative binding ratio (IC50 of the test peptide divided by IC50 of the reference peptide) (DRB4) | relative binding ratio (IC50 of the test peptide divided by IC50 of the reference peptide) (DRB5) | relative binding ratio (IC50 of the test peptide divided by IC50 of the reference peptide) (DRB1*1301) | positive specific TCLs out of 30 replicate wells per subject ([1]; allergic subjects) | positive specific TCLs out of 30 replicate wells per subject ([1]; nonallergic subjects) |
| --- | --- | --- | --- | --- | --- | --- | --- | --- | --- | --- | --- | --- |
| LEAKITMLTNGQCQNIT [pC3, Can f 1 peptide p48–64] | > 167 | 2 | 89 | 103 | 50 | 4 | 33 | > 1 179 | 339 | 471 |  |  |
| ALEDFREFSRAKGLNQ [pC8, Can f 1 peptide p125–140] | > 167 | > 13 | 2 | 71 | 189 | 155 | > 236 | > 1 179 | 101 | 245 |  |  |
| MNLESVTPMTLTTLEGGNL [pTL2, Tear lipocalin peptide p31–49] | > 167 | > 13 | > 200 | 55 | 436 | 15 | > 236 | > 1 179 | 645 | > 481 |  |  |
| PGKYTAYEGQRVVFIQ [pC4, Can f 1 peptide p73–88] | 61 | 0.4 | 133 | 1 | 82 | 1 | 13 | 722 | 14 | 56 | 5.0±1.15% | 4.2±1.61% |

Now from value to sequence, other results behind:

| relative binding ratio (IC50 of the test peptide divided by IC50 of the reference peptide) (DRB3) | relative binding ratio (IC50 of the test peptide divided by IC50 of the reference peptide) (DRB1*1501) | relative binding ratio (IC50 of the test peptide divided by IC50 of the reference peptide) (DRB1*1101) | relative binding ratio (IC50 of the test peptide divided by IC50 of the reference peptide) (DRB1*0701) | relative binding ratio (IC50 of the test peptide divided by IC50 of the reference peptide) (DRB1*0401) | relative binding ratio (IC50 of the test peptide divided by IC50 of the reference peptide) (DRB1*0101) | relative binding ratio (IC50 of the test peptide divided by IC50 of the reference peptide) (DRB1*0301) | relative binding ratio (IC50 of the test peptide divided by IC50 of the reference peptide) (DRB4) | relative binding ratio (IC50 of the test peptide divided by IC50 of the reference peptide) (DRB5) | relative binding ratio (IC50 of the test peptide divided by IC50 of the reference peptide) (DRB1*1301) | Sequence | positive specific TCLs out of 30 replicate wells per subject ([1]; allergic subjects) | positive specific TCLs out of 30 replicate wells per subject ([1]; nonallergic subjects) |
| --- | --- | --- | --- | --- | --- | --- | --- | --- | --- | --- | --- | --- |
| > 167 | > 13 | 105 | > 1 874 | > 1 260 | > 3844 | 8 | > 1 179 | > 1 443 | 236 | KPVRGVKLVGRDPKNNL [pTL7, Tear lipocalin peptide p108–124] |  |  |
| 8 | 1 | 5 | 0.2 | 82 | 2 | 0.4 | 312 | 4 | 3 | LEAKVTMLISGRCQEVK [pTL3, Tear lipocalin peptide p49–65] | 1.89±0.57% | 4.2±0.68% |
| > 167 | > 13 | > 200 | 1 440 | 85 | 3 | > 236 | > 1 179 | 22 | > 481 | ALEDFEKAAGARGLST [pTL8, Tear lipocalin peptide p126–141] |  |  |
